Results from US20230226227A1, “PROSTATE SPECIFIC MEMBRANE ANTIGEN (PSMA) LIGANDS AND USES THEREOF” (ADVANCED ACCELERATOR APPLICATIONS (ITALY) SRL, priority 2019, published 2023).
“And” between values parts separate entries of the source, which are not always exact repeats. Equal values may be shown once. “Also recorded” adds a separate entry of the source.

Assays:
[1] = test system: Escherichia coli WP2 uvrA; assay: Bacterial mutation assay, Escherichia coli; type: cell-based
Description: (§1) The test item ^175Lu-labelled PSMA-R2 solution was examined for the ability to induce gene mutations in tester strains of Salmonella typhimurium and Escherichia coli, as measured by reversion of auxotrophic strains to prototrophy. The five tester strains TA1535, TA1537, TA98, TA100 and WP2 uvrA were used. Experiments were performed both in the absence and presence of metabolic activation, using liver S9 fraction from rats pre-treated with phenobarbital and 5,6-benzoflavone.
(§2) The test item was used as a solution in sodium acetate buffer and all concentrations in this report are expressed in terms of active ingredient. The test item ^175Lu-labelled PSMA-R2 solution was assayed in the toxicity test at a maximum feasible concentration of 1000 µg/plate and at four lower concentrations spaced at approximately half-log intervals: 316, 100, 31.6 and 10.0 µg/plate.
(§3) On the basis of the results obtained in the preliminary toxicity test, in the Main Assay, using the plate incorporation method, the test item was assayed with all tester strains at the following dose levels: 1000, 500, 250, 125 and 62.5 µg/plate. […] Since a clear negative result was obtained, no further experiment was undertaken.

[2] = Effects on cardiovascular function of the conscious telemetered minipig; type: in vivo; settings: iv 0.058, 0.175, 0.58 mg/kg
Description: The purpose of this study was to investigate the potential effects of ^175Lu-PSMA-R2 on the cardiovascular functions of the conscious telemetered male minipig following intravenous administration at doses of 0.058, 0.175 and 0.583 mg/kg.
The test item or vehicle was administered intravenously into the external auricular vein at a fixed injection rate of 4 mL/min. The dose was administered to each animal at a dose volume of 1 mL/kg body weight.
At 7-day intervals, each animal received the vehicle or one of the three doses of the test item, following the crossover design described in Table 4.
Systolic, diastolic and mean blood pressure (SBP, DBP and MBP), heart rate (HR), body temperature and Lead II electrocardiogram were recorded continuously, from 1 hour before administration up to 24 h after dosing. Haemodynamic and electrocardiographic data were reported at pre-dose and at 5, 15, 30 minutes and 1, 2, 4, 8 and 24 hours post-dose.

[3] = Plasma protein binding by ultrafiltration, minipig plasma; type: in vitro ADME
Description: (§4) Plasma protein binding of PSMA-R2 and ^175Lu-PSMA-R2 has been determined by ultrafiltration method, after incubation of the compounds in human, mouse, rat and minipig plasma at two different concentrations: 1 and 5 µg/mL.

[4] = Plasma protein binding by ultrafiltration, human plasma; type: in vitro ADME; settings: for fu (%) fraction unbound: human plasma
Description: as §4

[5] = Plasma protein binding by ultrafiltration, rat plasma; type: in vitro ADME
Description: as §4

[6] = Repeated dose (2 weeks) toxicity and toxicokinetic study in the minipig; type: in vivo, minipigs; settings: for Half-life: mean value per sex
Description: The tested doses are: 0.058, 0.175 and 0.583 mg/kg/day, that is about 14, 42 and 140 times the PSMA-R2 anticipated human dose.
Each group included 3 male and 3 female minipigs. Groups 1 and 4 included 2 additional animals per gender to be sacrificed after 2 weeks of recovery.
All animals were dosed intravenously once a day for 14 consecutive days.

[7] = Behavioral Irwin test after single intravenous administration; type: in vivo, rat
Description: The aim of this study was to evaluate the possible effects of ^175Lu-PSMA-R2, at doses of 0.2, 0.6 and 2.0 mg/kg, on general behavior parameters in the rat after intravenous administration, according to the study design in Table 2.
The following parameters were evaluated: mortality, body weight, clinical signs and Irwin test.
The Irwin test was performed at the following intervals after dosing: 5, 15, 30 minutes and 1, 2 and 24 hours.

[8] = Single dose toxicity study in the rat; type: in vivo, Sprague Dawley (SD) rats
Description: This study aimed at assessing the toxicity of ^175Lu-PSMA-R2 right after acute intravenous injection of 2 or 4 mg/kg among Sprague Dawley (SD) rats.
Two groups of 30 animals (1:1 male:female ratio) were administered with 2 and 4 mg/kg, respectively. A control group of equal characteristics was treated with the vehicle (Table 5).
Signs of reaction to treatment at all doses were assessed at 30, 120 and 240 min p.i. as well as 24 h later. At Day 2, 10 rats per gender and per group were sacrificed. The remaining 5 animals/gender/group were observed daily over14 days.
Body weight was recorded on the day of treatment group allocation, Day 1 (day of injection), 8 and 15. Food consumption was measured on Day 2 and weekly thereafter. At the end of treatment, urine samples were collected for urinalysis. On Day 2 and 15, blood samples withdrawn at sacrifice were screened for clinical pathologies. After dissection, organs were weighted and tissues were treated for microscopic analyses (over 50 different tissues were analyzed).

[9] = Single dose toxicity study in the minipig; type: in vivo, Göttingen minipigs
Source text: A two-week treatment-free period was allowed after administration.
All animals were administrated intravenously. Plasma samples were collected at Day 1 for toxicokinetic analysis.
Mortality, clinical signs, body weight, food consumption, clinical pathology investigations, ophthalmoscopy, ECG evaluations, and macroscopic observations were indexed at necropsy. Then selected organs were weighed and tissues collected.
In addition, plasma samples were collected on Day 1 for toxicokinetic analysis.

[10] = test system: Salmonella typhimurium TA1535, TA1537, TA98, TA100; assay: Bacterial mutation assay, Salmonella typhimurium; type: cell-based
Description: as §1, §2, §3

[11] = 10.0-1000 µg/plate, absence or presence of S9
[12] = 62.5-1000 µg/plate, absence or presence of S9
[13] = absence or presence of S9 metabolism
[14] = daily iv 0.058, 0.175, 0.583 mg/kg/day for 14 days
[15] = single iv 0.175, 0.58, 1.75 mg/kg

## O=C(O)CCC(NC(=O)NC(CCCCN(Cc1ccc(Br)cc1)C(=O)CCCCCNC(=O)CN1CCN(CC(=O)O)CCN(CC(=O)O)CCN(CC(=O)O)CC1)C(=O)O)C(=O)O.[175Lu] (stereo not drawn) [^175Lu-PSMA-R2]
[1]; [11]
  Toxicity and revertant numbers, preliminary toxicity test: Neither toxicity, nor relevant increases in revertant numbers
[1]; [12]
  Toxicity and revertant numbers, Main Assay (plate incorporation): Neither toxicity, nor relevant increases in revertant numbers
[1]; [13]
  Induction of reverse mutation (conclusion): does not induce reverse mutation
[2]
  Changes in heart rate, arterial blood pressure or electrocardiographic activity: No relevant changes in heart rate, arterial blood pressure or electrocardiographic activity were observed at the tested doses in conscious mini pigs.
[3]; 1 µg/mL
  fu (%) fraction unbound: 41.1 ± 4.2%
[3]; 5 µg/mL
  fu (%) fraction unbound: 46.1 ± 12.5%
[4]; 1 µg/mL
  fu (%) fraction unbound: 43.9± 5.1%
[4]; 5 µg/mL
  fu (%) fraction unbound: 45.0 ± 9.6%
[4]; human, plasma
  Plasma protein binding, assessment in words: non-highly bound
[5]; 1 µg/mL
  fu (%) fraction unbound: 37.4 ± 4.9%
[5]; 5 µg/mL
  fu (%) fraction unbound: 59.8 ± 4.4%
[6]; Day 1, female minipigs
  Half-life: 37.8 min
[6]; Day 1, male minipigs
  Half-life: 42.6 min
[6]; Day 1 to Day 14
  Accumulation after daily administration: No relevant accumulation
[6]; any dose
  Clinical pathology, gross pathology, terminal body weight, absolute and relative organ weight: did not reveal notable or treatment-related changes
  Histopathology: no histopathology treatment-related modifications
[6]; [14]
  Body weights and food intake: unaffected by the treatment
  Ophthalmoscopy and electrocardiographic examination: No treatment-related abnormalities
  Physical examination: did not show appreciable changes
[6]; daily iv for 2 weeks
  NOAEL: 0.583 mg/kg/day and 0.58 mg/kg/day
[6]; minipig, in vivo
  Increase in systemic exposure (Cmax and AUC0-tlast) with dose: approximately dose-proportional
  Plasma clearance, dose dependence: dose-independent
[6]; once a day for 2 weeks
  Treatment-related effects in treated groups compared to controls: No evidence of treatment-related effects
[7]; 6-day observation period
  Clinical signs: No clinical signs were observed
[7]; single iv 0.2, 0.6 and 2.0 mg/kg
  Mortality: No deaths occurred
[7]; single iv 0.2, 0.6 and 2.0 mg/kg, up to 24 h post-dose
  Effects on behavioral, neurologic or autonomic parameters (Irwin): did not induce any effects; also recorded: No effects
[8]; high dose (4 mg/kg), 30 min after dosing, no cause of death established
  Mortality: One death
[8]; high dose group, dead animal and 5 other animals
  Clinical signs immediately after dosing: Only decreased activity was noted
[8]; single iv 2 and 4 mg/kg
  Toxicity signs: did not induce toxicity signs; also recorded: No signs of toxicity observed
[9]; high dose group (1.75 mg/kg)
  Hematology and clinical chemistry: Some changes in hematology and clinical chemistry were observed in some animals
[9]; [15]
  Organ weights, macroscopic or microscopic changes: No changes in the organ weights and no treatment-related macroscopic or microscopic changes
  Physical signs, ocular findings, electrocardiographic abnormalities: No treatment-related physical signs, ocular findings, nor electrocardiographic abnormalities
[9]; single iv 0.175, 0.583 and 1.75 mg/kg
  Toxicity signs: did not induce signs of toxicity; also recorded: No relevant treatment-related toxicity signs
[10]; [11]
  Toxicity and revertant numbers, preliminary toxicity test: Neither toxicity, nor relevant increases in revertant numbers
[10]; [12]
  Toxicity and revertant numbers, Main Assay (plate incorporation): Neither toxicity, nor relevant increases in revertant numbers
[10]; [13]
  Induction of reverse mutation (conclusion): does not induce reverse mutation
